This data set deals with recombinant Candida tropicalis Ct6 strain. As to the kind of experiment: Cytotoxicity of synthesized (biomass-derived) dialkyl ethers to recombinant strain, growth by absorbance at 600 nm. In kind it is cell-based. The settings on record: 0-5% ether in YPD medium, 48-well plate, 24 hours or more, ether synthesized in Example 1. As for the experimental part: The cytotoxicity of the dioctyl ether synthesized as described above was analyzed. 200 μl of a mixed solution of YPD medium (10 g/L yeast extract, 20 g/L Bacto peptone, 20 g/L glucose) and each concentration (0, 0.25, 0.5, 1, 2, 3, 4, or 5%) of dioctyl ether was added to each well of a 48-well plate. After 2 μl of a culture of a recombinant Candida tropicalis Ct6 strain cultured overnight in YPD medium at 30° C. and 200 rpm was further added to each well, the absorbance at 600 nm was measured using a plate reader at 30° C. for 24 hours or more at 15-minute intervals. The maximum specific growth rate (μm) and lag time were calculated using the Gompertz growth equation.
The cytotoxicity of the didodecyl ether synthesized as described above was analyzed. 200 μl of a mixed solution of YPD medium and each concentration (0, 0.25, 0.5, 1, 2, 3, 4, or 5%) of didodecyl ether was added to each well of a 48-well plate. After 2 μl of a culture of a recombinant Candida tropicalis Ct6 strain cultured overnight in YPD medium at 30° C. and 200 rpm was further added to each well, the absorbance at 600 nm was measured using a plate reader at 33° C. for 24 hours or more at 15-minute intervals. The maximum specific growth rate and lag time were calculated using the Gompertz growth equation.

Experimental findings from patent US20250340911A1, “METHOD FOR PRODUCING FROM FATTY ALCOHOLS MONOMERS FOR PRODUCING VARIOUS SYNTHETIC RESINS” (priority 2022, published 2025) are described below.

The structures appear in SMILES notation.

Turning to `CCCCCCCCCCCCOCCCCCCCCCCCC` [Didodecyl ether, didodecyl ether], the “cytotoxicity (maximum specific growth rate and lag time, Gompertz growth equation)” value was “almost no cytotoxicity”.
To `CCCCCCCCOCCCCCCCC` [Dioctyl ether, dioctyl ether] belongs “almost no cytotoxicity”.
